Measurements as given in article PMC10307035, “Antiviral activity of singlet oxygen-photogenerating perylene compounds against SARS-CoV-2: Interaction with the viral envelope and photodynamic virion inactivation” (Virus Research, 2023).

Columns and labels:
Vero cells [1] = test: Cytotoxicity assay (Cell Counting Kit-8) in Vero cells; assay type: cell-based, African Green Monkey; conditions: 10 µM, 48 h
Method: (§1) To determine the overall cytotoxicity of the tested compounds, Vero cells were cultured for 24 h in 96-well plates to form a confluent monolayer, and then were treated with the tested compounds at concentrations of 2 and 10 µM. After 48 h of cultivation in the dark at 37 °C under 5% CO2, the cell culture medium was aspirated. The potential cytotoxicity of the tested perylene derivatives was determined based on cell viability using Cell Counting Kit-8 (Dojindo Molecular Technologies, Munich, Germany) according to the manufacturer's instructions. The cell viabilities of compound-treated Vero cells were compared with those of control DMSO-treated cells. We also used the above-described protocol to assess the cytotoxicity of the selected perylene antivirals, at concentrations ranging from 0 to 10 µM, in CaCo-2 and CRFK cells.

Vero cells [2] = test: Light-induced cytotoxicity in Vero cells; assay type: cell-based, African Green Monkey; conditions: 0–10 µM, 465–480 nm 10 min, then 24 h in the dark
Method: To determine the light-induced cytotoxicity of the tested compounds, Vero cells were cultured for 24 h in 96-well plates to form a confluent monolayer, and then were treated with the tested compounds at concentrations of 0 to 10 µM. Then, the compound-treated cells were irradiated for 10 min at RT with LEDs (465–480 nm) having an approximate power density of 30 mW/cm^2 (device description in Fig. S7). As a negative control, compound-treated cells were incubated for 10 min in the dark at RT. Subsequently, both irradiated and non-irradiated cell monolayers were incubated in the dark at 37 °C for 24 h. Then, the cell culture medium was aspirated and the potential cytotoxicity of the tested perylene derivatives was determined based on cell viability using Cell Counting Kit-8 (Dojindo Molecular Technologies, Munich, Germany) according to the manufacturer's instructions.

[3] = ROS generation rate / quantum yield, DPBF bleaching in methanol; assay type: physicochemical; conditions: for φROS (ROS generation quantum yield): in methanol, DPBF trap, 450–470 nm illumination, riboflavin as reference
Description: The ROS generation rate was estimated using the spectrophotometric method, based on the absorption changes of 1,3-diphenylisobenzofuran (DPBF, Sigma Aldrich, Germany) in methanol solution. Irreversible oxidation of DPBF by singlet oxygen results in peroxide formation, and DPBF bleaching. When light of 400–450 nm was used as actinic, DPBF bleaching occurred without any photosensitizer (PS) in solution. Therefore, to study photosensitized ROS generation, we used a white MCWHLP1 LED (Thorlabs, USA) with filters to limit the radiation to the 450–470 nm range (5.5 mW/cm^2).
Spectrophotometric measurements were performed in a Qpod 2e (Quantum Northwest, USA) thermostated cuvette holder at 25 °C with magnetic stirring (500 rpm). Absorption spectra were recorded using a MayaPro spectrophotometer (Ocean Optics, USA) and a stabilized white light source with a SLS201L tungsten lamp (Thorlabs, USA). Illumination was uniform over the entire volume of the cuvette, to prevent artifacts associated with the diffusion of non-reacted components into the illuminated volume of the cuvette. In this case, the rate of irreversible bleaching of DPBF (412 nm) was the same under both continuous and pulsed irradiation with equal total irradiation time. Illumination was performed in a pulsed mode (Fig. S5A), with 1 s of illumination followed by 5 s of dark adaptation, during which the absorption spectrum of the PS-DPBF solution was recorded. Data processing was performed as previously described ([Gvozdev et al., 2020]).

[4] = Fluorescence quantum yield determination; assay type: physicochemical; conditions: in DMSO, relative to rhodamin B
Method: The samples’ steady-state fluorescence characteristics were measured in L-format using a Chronos DFD Fluorescence spectrometer (ISS, USA) equipped with a 300 W Cermax xenon arc lamp (ISS, USA), a concave holographic grating monochromator, and a PMT detector. The required amount of each sample was diluted in DMSO and measured in a 1-cm quartz cuvette at a constant temperature of 25 °C. The resulting data were evaluated using Vinci software (ISS, USA) and correlated to the utilized optical configuration.
Absorption spectra were measured using a high-performance Specord S 600 diode spectrophotometer (Jena Analyst, DE). The required amount of each sample was diluted in DMSO, added to 1-cm quartz cuvette, and measured within the selected absorbance spectrum range, against pure DMSO as a blank, at a constant temperature of 25 °C. The results were evaluated using WinASPECT® software (Jena Analyst, DE).
Fluorescence quantum yield was determined following a previously described protocol ([Kozma et al., 2005]; [Magde et al., 1999]; [Williams et al., 1983]). The kinetics of the incorporation of compounds into liposome membrane models was determined using steady-state fluorescence spectroscopy at a constant excitation and emission wavelength, according to the corresponding sample excitation and emission maxima. We added 50 μL of LNP suspension to 0.1 mM of the analyte in PBS, and monitored the increase of fluorescence intensity over the time range from 0 to 1400s. The preparation and characterization of the liposomal suspension is described in the supporting information (Fig. S4).
1. Supplementary material and methods
1.1. Fluorescence quantum yield (QY) determination
The steady-state fluorescence and absorption data were used for quantum yield determination. QY was determined relative to a reference compound, rhodamin B. Absorbance in the range of 0.01–0.1 was used to calculate the QY. We plotted two calibration curves of integrated emission fluorescence intensity as a function of sample absorbance. […]

[5] = ROS generation measurement with DMA trap in DMSO; assay type: physicochemical; conditions: for ROS generation, DMA trap, under blue light: 465–480 nm, 30 mW/cm^2, 10 min
Method: ROS generation was also estimated using 9,10-dimethylanthracene (DMA), another specific fluorescent singlet oxygen trap, which forms nonfluorescent 9,10-dimethylanthracene endoperoxide after ROS-mediated DMA oxidation. Compounds (0, 0.1, 1, and 10 µM) in DMSO were mixed with DMA (0.5 µM), and these solutions were irradiated for 10 min at room temperature (RT) with light-emitting diodes (LED, 465–480 nm) having approximate power density of 30 mW/cm^2 (device description in Fig. S7). DMA fluorescence intensity was measured at ex/em wavelengths of 370/432 nm in the presence or absence of α-tocopherol (3 µg/mL) as an antioxidant. Singlet oxygen generation was accompanied by a decreased fluorescence signal of the DMA probe ([Zeng et al., 2020]).

[6] = Spectrofluorometric analysis of interaction with liposomes; assay type: physicochemical; conditions: for penetration into liposomal membranes (in words): EPC/Chol 70/30 mol% liposomes
SARS-CoV-2 = test: Photodynamic inactivation of SARS-CoV-2 virions; assay type: cell-based; conditions: for antiviral activity after blue light irradiation of virus-compound mixture: 465–480 nm, 30 mW/cm^2, 10 min, then 60 min at 37 °C in the dark, plaque assay
Method: Virus in DMEM (titer of 10^5 PFU/mL) was mixed with the compounds (0–10 µM) in a microtiter plate, in triplicate, and irradiated for 10 min at RT with LEDs (465–480 nm) having an approximate power density of 30 mW/cm^2 (device description in supplement). As a negative control, virus was incubated for 10 min in the dark at RT. Subsequently, both irradiated and non-irradiated virus samples were incubated in the dark at 37 °C for 60 min. All manipulation with the samples before and after this incubation, i.e., mixing the compound with the virus, pipetting into a microtiter plate, etc., were performed in daylight. Viral titers were determined by plaque assays (performed also in daylight) and expressed as PFU/mL, as previously described ([Stefanik et al., 2021]). To eliminate the influence of daylight on compound activity, the whole experiment, including all manipulation with samples, was performed in a dark room under red light. The virus sample was mixed with the indicated compounds at concentrations from 0 to 10 μM or 100 μM, incubated for 60 min at 37 °C and virus viability was evaluated using a plaque assay (Fig. 9A).

[7] = tested on: feline infectious peritonitis virus (FIPV); assay type: cell-based, feline coronavirus (FCoV); conditions: 0–10 µM
CaCo-2 cells = test: Cytotoxicity assay (Cell Counting Kit-8) in CaCo-2 cells; assay type: cell-based, human; conditions: up to 10 µM
Method: as §1

CRFK cells = test: Cytotoxicity assay (Cell Counting Kit-8) in CRFK cells; assay type: cell-based, Felis catus; conditions: up to 10 µM
Method: as §1

[8] = tested on: SARS-CoV-2 (Wuhan strain); test: Viral titer inhibition assay, SARS-CoV-2 in CaCo-2 cells; assay type: cell-based; conditions: 0–10 µM
[9] = parameters: method as in Magde et al., 1999; conditions: Water; λ = 514 nm; ref Magde et al., 1999; cited from earlier work

Compound: CN(C)c1ccc(C#Cc2ccc3c4cccc5cccc(c6cccc2c63)c54)cc1 [Compound 14]
- cell viability (in words) (Vero cells [1]): moderately decreased cell viability
- effect of blue light irradiation on cytotoxicity (Vero cells [2]): no effect
- φROS (ROS generation quantum yield) [3]: 7.1 ± 0.2%
- photodynamic activity (DPBF trap, in words) ([3]; methanol, 450–470 nm): minimal
- fluorescence quantum yield [4]: 8%
- ROS generation, DMA trap, under blue light [5]: minimal photodynamic activities
- solubility in water (in words) [6]: poorly soluble in water
- penetration into liposomal membranes (in words) ([6]; 10 µM in PBS): slow and very gradual
- fluorescence intensity after mixing with liposomes ([6]; at 540 nm, 10 µM in PBS): 10^3 CPS
- antiviral activity after blue light irradiation of virus-compound mixture (SARS-CoV-2): viral titer decreased by less than an order of magnitude

Compound: O=C(O)c1ccc(-c2ccc3c4cccc5cccc(c6cccc2c63)c54)s1 [Compound 16]
- φROS (ROS generation quantum yield) [3]: 59.0 ± 1.8%
- fluorescence quantum yield [4]: 61%
- penetration into liposomal membranes (in words) ([6]; 10 µM in PBS): penetrated the liposomal membranes very quickly and efficiently
- steady-state fluorescence signal after mixing with liposomes ([6]; at 520 nm, after 1400 s, 10 µM in PBS): about 10^5 CPS

Compound: O=C(NCCCCO)c1ccc(-c2ccc3c4cccc5cccc(c6cccc2c63)c54)s1 [Compound 17]
- replication of FIPV in CRFK cells [7]: potently suppressed the replication
- effect of blue light irradiation on cytotoxicity (Vero cells [2]): dramatically increased
- tolerability by CaCo-2 cells (CaCo-2 cells): well-tolerated
- tolerability by CRFK cells (CRFK cells): well-tolerated
- φROS (ROS generation quantum yield) [3]: 59.0 ± 2.4%
- anti-SARS-CoV-2 activity in CaCo-2 cells [8]: sub-micromolar
- ROS generation, DMA trap, under blue light [5]: significant bleaching
- ROS generation, DMA trap, in the dark or with α-tocopherol ([5]; 10 min, dark or α-tocopherol (3 µg/mL)): no/limited bleaching
- antiviral effect under red light only (SARS-CoV-2; 100 µM, dark room, red light, 60 min at 37 °C): no antiviral effect
- antiviral activity after blue light irradiation of virus-compound mixture (SARS-CoV-2): low-nanomolar
- antiviral activity under red light only (SARS-CoV-2; up to 10 µM, dark room, red light, 60 min at 37 °C): completely disappeared

Compound: CCN(CC)c1ccc2c(-c3ccccc3C(=O)O)c3ccc(=[N+](CC)CC)cc-3oc2c1.[Cl-] [rhodamin B]
- QYr (fluorescence quantum yield of reference) [9]: 31%
